molecular target: T1, GPR6 receptor (Homo sapiens, UniProt P46095); test: Inhibition of cAMP Activity of GPR6 In Vitro Assay (CHO-K1 cells, HTRF cAMP); format: cell-based; conditions: compounds of Compound Table 1; inhibition of constitutive cAMP activity of GPR6 expressed in CHO-K1 cells; approximate IC50; read-out: IC50
T1 construct: expressed in transfected cells
Procedure: Inhibition of cAMP Activity of GPR6 In Vitro Assay
This cell based assay measures the ability of compounds to inhibit the constitutive cAMP activity of GPR6 receptor expressed in CHO-K1 cells. CHO cells were stably expressed with GPR6 receptor, whose expression is controlled by a tetracycline inducable element. The cells were cultured in medium containing F12K, 10% FBS, 1% Penn/Strep, 200 ug/mL Hygromycin. GPR6 receptor expression was induced for 20 hrs with 1 μg/ml doxycycline (sigma D9891) in growth media. After addition of doxycycline cells were plated at a density of 250-500 cells per well in half-volume black clear bottom plates (Costar) and place in an incubator (37°, 5% C(O)2) for 20 hours prior to cAMP assays.
Culture media was removed from cells and they were washed with 50 μL of Ringer's Buffer (MgCl2 0.047 mg/mL, NaH2PO4 0.18 mg/mL, Na2HPO4 0.1 mg/mL, KCl 0.34 mg/mL, NaHC(O)3 1.26 mg/mL, D-glucose 1.8 mg/mL, NaCl 7 mg/mL; pH=7.4). Compounds suspended in DMSO were diluted in Ringer's Buffer containing 0.5% fatty acid free BSA and incubated on cells for 45 min at […] and 5% C(O)2. After incubation cells were incubated for 10 min at room temp with Eu-cAMP tracer solution from a Perkin Elmer Lance HTRF UltracAMP assay kit (TRF0264). Then ULight™-anti-cAMP solution from the Lance HTRF kit was added and incubated on a shaker at room temp for 1 hour prior to HTRF detection in a BMG PolarStar Omega.
IC50 curves were generated with a four-parameter logistic equation using GraphPad Prism 5.03.

T1 sequence (P46095 whole entry): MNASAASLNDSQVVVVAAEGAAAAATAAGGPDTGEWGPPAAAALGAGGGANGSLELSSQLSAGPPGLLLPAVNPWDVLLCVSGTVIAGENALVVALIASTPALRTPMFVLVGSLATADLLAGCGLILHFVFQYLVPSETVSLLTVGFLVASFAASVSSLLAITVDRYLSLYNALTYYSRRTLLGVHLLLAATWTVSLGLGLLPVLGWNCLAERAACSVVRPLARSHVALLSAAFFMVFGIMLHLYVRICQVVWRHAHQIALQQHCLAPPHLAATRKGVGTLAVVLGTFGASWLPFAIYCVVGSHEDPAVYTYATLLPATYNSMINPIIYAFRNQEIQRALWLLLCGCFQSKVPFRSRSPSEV

Row | Substance | IC50
1 | 3-(4-(2,5-difluorobenzoyl)piperidin-1-yl)-2-(isopropylamino)pyrido[3,4-b]pyrazine-7-carbonitrile, 2,2,2-trifluoroacetic acid salt [Cpd 631] | 6 nM
2 | 3-(4-(2,5-difluorobenzyl)piperazin-1-yl)-2-((3,3,3-trifluoropropyl)amino)quinoxaline-6-carbonitrile, 2,2,2-trifluoroacetic acid salt [Cpd 400] | 390 nM
3 | 3-(4-(2,5-difluorobenzyl)piperazin-1-yl)-2-((6-methoxypyridin-3-yl)amino)quinoxaline-6-carbonitrile, 2,2,2-trifluoroacetic acid salt [Cpd 333] | 97 nM
4 | 3-(4-(2-fluoro-4-methoxybenzyl)piperidin-1-yl)-2-(isopropylamino)pyrido[3,4-b]pyrazine-7-carbonitrile, 2,2,2-trifluoroacetic acid salt [Cpd 636] | 16 nM
5 | 3-(4-(2-fluoro-4-methoxybenzyl)piperidin-1-yl)-N-isopropylpyrazino[2,3-d]pyridazin-2-amine, 2,2,2-trifluoroacetic acid salt [Cpd 642] | 54 nM
6 | 3-(4-(2-fluoro-4-methoxyphenoxy)piperidin-1-yl)-2-(isopropylamino)pyrido[3,4-b]pyrazine-7-carbonitrile, 2,2,2-trifluoroacetic acid salt [Cpd 628] | 276 nM
7 | 3-(4-(2-fluoro-4-methoxyphenoxy)piperidin-1-yl)-N-isopropylpyrido[3,4-b]pyrazin-2-amine, 2,2,2-trifluoroacetic acid salt [Cpd 616] | 939 nM
8 | 3-(4-(2-fluoro-4-methoxyphenoxy)piperidin-1-yl)-N-isopropylpyrido[3,4-b]pyrazin-2-amine, 2,2,2-trifluoroacetic acid salt [Cpd 617] | 54 nM
9 | 3-(4-(3-bromo-4-fluorobenzoyl)piperazin-1-yl)-2-(cyclopropylamino)quinoxaline-6-carbonitrile, 2,2,2-trifluoroacetic acid salt [Cpd 256] | 380 nM
10 | 3-(4-(3-chloro-4-fluorobenzyl)piperazin-1-yl)-N-cyclopropylpyrido[3,4-b]pyrazin-2-amine, 2,2,2-trifluoroacetic acid salt [Cpd 315] | 50 nM
11 | 3-(4-(3-chlorophenoxy)piperidin-1-yl)-N-cyclopropylpyrido[3,4-b]pyrazin-2-amine, 2,2,2-trifluoroacetic acid salt [Cpd 426] | 27 nM
12 | 3-(4-(4-chloro-2-fluorophenoxy)piperidin-1-yl)-2-(cyclopropylamino)quinoxaline-6-carbonitrile, 2,2,2-trifluoroacetic acid salt [Cpd 465] | 11 nM
13 | 3-(4-(4-chloro-2-fluorophenoxy)piperidin-1-yl)-2-(isopropylamino)-N,N-dimethylpyrido[3,4-b]pyrazine-7-carboxamide, 2,2,2-trifluoroacetic acid salt [Cpd 630] | 7 nM
14 | 3-(4-(4-chloro-2-fluorophenoxy)piperidin-1-yl)-N-isopropylpyrazino[2,3-d]pyridazin-2-amine, 2,2,2-trifluoroacetic acid salt [Cpd 643] | 15 nM
15 | 3-(4-(4-chloro-3-methylbenzyl)piperazin-1-yl)-N-cyclopropylquinoxalin-2-amine, 2,2,2-trifluoroacetic acid salt [Cpd 194] | 3640 nM
16 | 3-(4-(4-chlorobenzyl)piperidin-1-yl)-N-cyclopropylpyrido[3,4-b]pyrazin-2-amine, 2,2,2-trifluoroacetic acid salt [Cpd 424] | 310 nM

Row | Substance | IC50
17 | 3-(4-(5-(tert-butyl)-2-methoxybenzyl)piperazin-1-yl)-N-cyclopropylpyrido[3,4-b]pyrazin-2-amine, 2,2,2-trifluoroacetic acid salt [Cpd 306] | 380 nM
18 | 3-(4-(5-chloro-2-fluorobenzoyl)piperidin-1-yl)-2-(cyclopropylamino)quinoxaline-6-carbonitrile, 2,2,2-trifluoroacetic acid salt [Cpd 469] | 90 nM
19 | 3-(4-(5-cyano-2-(dimethylcarbamoyl)benzoyl)piperidin-1-yl)-2-(cyclopropylamino)-N,N-dimethylpyrido[3,4-b]pyrazine-7-carboxamide [Cpd 596] | 26 nM
20 | 3-(4-((2,4-difluorophenyl)fluoromethyl)piperidin-1-yl)-N-(2-methoxyethyl)pyrido[3,4-b]pyrazin-2-amine, 2,2,2-trifluoroacetic acid salt [Cpd 520] | 30 nM
21 | 3-(4-((2,4-difluorophenyl)fluoromethyl)piperidin-1-yl)-N-isopropylpyrido[3,4-b]pyrazin-2-amine, 2,2,2-trifluoroacetic acid salt [Cpd 621] | 21 nM
22 | 3-(4-((2-chloro-4-(trifluoromethyl)phenyl)sulfonyl)piperazin-1-yl)-2-(cyclopropylamino)quinoxaline-6-carbonitrile, 2,2,2-trifluoroacetic acid salt [Cpd 330] | 29 nM
23 | 3-(4-((2-cyanophenyl)sulfonyl)piperazin-1-yl)-2-(cyclopropylamino)quinoxaline-6-carbonitrile, 2,2,2-trifluoroacetic acid salt [Cpd 252] | 2540 nM
24 | 3-(4-((3-chloro-5-fluoro-2-methylphenyl)sulfonyl)piperazin-1-yl)-2-(cyclopropylamino)quinoxaline-6-carbonitrile, 2,2,2-trifluoroacetic acid salt [Cpd 282] | 4290 nM
25 | 3-(4-((4-(tert-butyl)phenyl)sulfonyl)piperazin-1-yl)-2-(cyclopropylamino)quinoxaline-6-carbonitrile, 2,2,2-trifluoroacetic acid salt [Cpd 280] | 450 nM
26 | 3-(4-((4-bromo-2-fluorophenyl)sulfonyl)piperazin-1-yl)-2-(cyclopropylamino)quinoxaline-6-carbonitrile, 2,2,2-trifluoroacetic acid salt [Cpd 285] | 1360 nM
27 | 3-(4-((4-bromophenyl)sulfonyl)piperazin-1-yl)-2-(cyclopropylamino)quinoxaline-6-carbonitrile [Cpd 251] | 4340 nM
28 | 3-(4-((4-chloro-2,5-dimethylphenyl)sulfonyl)piperazin-1-yl)-2-(cyclopropylamino)quinoxaline-6-carbonitrile, 2,2,2-trifluoroacetic acid salt [Cpd 281] | 960 nM
29 | 3-(4-((4-chloro-2-oxopyridin-1(2H)-yl)methyl)piperidin-1-yl)-2-(cyclopropylamino)quinoxaline-6-carbonitrile [Cpd 526] | 670 nM
30 | 3-(4-((4-chlorophenyl)sulfonyl)piperazin-1-yl)-2-(cyclopropylamino)quinoxaline-6-carbonitrile, 2,2,2-trifluoroacetic acid salt [Cpd 227] | 3290 nM
31 | 3-(4-((5-chloro-2-fluorophenyl)difluoromethyl)piperidin-1-yl)-N-cyclopropyl-5-methylpyrido[3,4-b]pyrazin-2-amine [Cpd 536] | 930 nM
32 | 3-(4-((5-chloro-2-fluorophenyl)difluoromethyl)piperidin-1-yl)-N-cyclopropylpyrido[3,4-b]pyrazin-2-amine [Cpd 539] | 770 nM
